IC50 data for 22 compounds are collected here from patent US12404270B2, “Quinazoline derivatives as LPA receptor 2 inhibitors” (CHIESI FARMACEUTICI S.P.A., priority 2019, dated 2025).

The IC50 is the concentration at which inhibition is half-maximal.

The target of this assay is T1, human recombinant LPA2 expressed in CHO cells (Homo sapiens, UniProt Q9HBW0).
T1 construct: expressed in transfected cells; host or cells: CHO (CHO-hLPA2 cell line)
As to the kind of experiment: FLIPR calcium mobilization assay, LPA2 antagonism in CHO-hLPA2 cells. The assay is classed as cell-based. To be noted: CHO-hLPA2 cells, inhibition of LPA EC80 Ca2+ response, 30 min pre-incubation; read-out: LPA2 IC50. The method, then:
The effectiveness of compounds of the present invention as LPA2 antagonist can be determined at the human recombinant LPA2 expressed in CHO cells, using a FLIPR assay in 384 well format.
CHO-hLPA2 cell lines are cultured in a humidified incubator at 5% CO2 in DMEM/F-12 (1:1) MIXTURE with 2 mM Glutamax, supplemented with 10% of Foetal Bovine Serum, 1 mM Sodium Pyruvate, 11 mM Hepes and 1× Penicillin/Streptomycin. CHO hLPA2 cells are seeded into black walled clear-bottom 384-well plates (#781091, Greiner Bio-One GmbH) at a density of 7,500 cells per well in 50 μl culture media and grown overnight in a 37° C. humidified CO2-incubator. Serial dilutions (1:3 or 1:4, 11 points CRC) of compounds are performed in 100% DMSO at 200× the final concentration. The compounds are diluted 1:50 prior to the experiment with Assay Buffer (20 mM HEPES, 145 mM NaCl, 5 mM KCl, 5.5 mM glucose, 1 mM MgCl2 and 2 mM CaCl2, pH 7.4 containing 0.01% Pluronic F-127) to obtain a solution corresponding to […] the final concentration in the assay (4×, 2% DMSO). The final concentration of DMSO in the assay will be 0.5% in each well. Medium is removed by aspiration and cells are then incubated with 30 μl of a loading solution containing 5 μM of the cytoplasmic Ca2+ indicator Cal-520 AM in Assay Buffer containing 2.5 mM probenecid for 30 min at 37° C. incubator (cell loading). The loaded cell plates are transferred into the FLIPR instrument and calcium responses are monitored during the on-line addition protocols. For testing of compounds, after the cell loading, 10 μl/well of 4× antagonists' solution was added onto the cells. […] Intracellular peak fluorescence values subtracted by baseline fluorescence are exported and analysed to determine IC50 values, respectively. The calcium response is expressed as percentage of the maximal inhibition of the EC80 agonist response.
The raw data (peak height expressed as relative fluorescence units) are normalized and transformed into “percent of inhibition”. Curve fitting and pIC50 (−Log IC50) estimations are carried out using a four-parameter logistic model using XLfit Software.
(Calcium assays in cells follow changes in intracellular calcium, usually with a dye or a luminescent sensor.)

Where only a bound is given, the exact number is not on record here.

T1 sequence (Q9HBW0 whole entry): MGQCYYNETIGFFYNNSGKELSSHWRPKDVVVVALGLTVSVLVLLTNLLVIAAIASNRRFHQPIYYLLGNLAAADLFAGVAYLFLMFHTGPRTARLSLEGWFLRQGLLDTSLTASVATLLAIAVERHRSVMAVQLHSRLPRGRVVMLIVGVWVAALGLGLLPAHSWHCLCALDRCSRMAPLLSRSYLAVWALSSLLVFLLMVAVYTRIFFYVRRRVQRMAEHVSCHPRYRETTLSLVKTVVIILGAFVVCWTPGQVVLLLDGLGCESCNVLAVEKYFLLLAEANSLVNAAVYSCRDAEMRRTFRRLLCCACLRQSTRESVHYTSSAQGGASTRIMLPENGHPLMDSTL

In the case of `C[C@@H](CN1CCN(S(=O)(=O)c2ccc(-c3ccon3)s2)CC1)Nc1ncnc2c(C(F)(F)F)cccc12` [Example 53, N-[(2S)-1-(4-{[5-(1,2-oxazol-3-yl)thiophen-2-yl]sulfonyl}piperazin-1-yl)propan-2-yl]-8-(trifluoromethyl)quinazolin-4-amine], the concentration for half-maximal inhibition (IC50) was in the range of 10 to 100 nM.

`COC(=O)Nc1nc(C)c(S(=O)(=O)N2CCN(C[C@H](C)Nc3nc(C)nc4c(C(F)(F)F)cccc34)CC2)s1` [Example 2, methyl N-[4-methyl-5-({4-[(2S)-2-{[2-methyl-8-(trifluoromethyl)quinazolin-4-yl]amino}propyl]piperazin-1-yl}sulfonyl)-1,3-thiazol-2-yl]carbamate]: the IC50 lay in the range of 10 to 100 nM. Regarding `COC(=O)Nc1nc(C)c(S(=O)(=O)N2CCN(C[C@H](C)Nc3ncnc4c(Br)cccc34)CC2)s1` [Example 101, methyl N-[5-({4-[(2S)-2-[(8-bromoquinazolin-4-yl)amino]propyl]piperazin-1-yl}sulfonyl)-4-methyl-1,3-thiazol-2-yl]carbamate], the IC50 lay in the range of 10 to 100 nM.

On to `CC(=O)Nc1cc(F)c(S(=O)(=O)N2CCN(C[C@H](C)Nc3ncnc4c(C(F)(F)F)cccc34)CC2)cc1Cl` [Example 42, N-[2-chloro-5-fluoro-4-({4-[(2S)-2-{[8-(trifluoromethyl)quinazolin-4-yl]amino}propyl]piperazin-1-yl}sulfonyl)phenyl]acetamide], for which the IC50 is less than 1000 nM. `CC(=O)Nc1ncc(S(=O)(=O)N2CCN(C[C@H](C)Nc3nc(C4CC4)nc4c(C)cccc34)CC2)s1` [Example 19, N-[5-({4-[(2S)-2-[(2-cyclopropyl-8-methylquinazolin-4-yl)amino]propyl]piperazin-1-yl}sulfonyl)-1,3-thiazol-2-yl]acetamide]: the IC50 is less than 1000 nM.

For the compound `COC(=O)Nc1nc(C)c(S(=O)(=O)N2CCN(C[C@H](C)Nc3nc(C(F)(F)F)nc4ccccc34)CC2)s1` [Example 11, methyl N-[4-methyl-5-({4-[(2S)-2-{[2-(trifluoromethyl)quinazolin-4-yl]amino}propyl]piperazin-1-yl}sulfonyl)-1,3-thiazol-2-yl]carbamate], the IC50 was less than 1000 nM.

Take `Cc1cc(-c2ncc(S(=O)(=O)N3CCN(C[C@H](C)Nc4ncnc5c(C(F)(F)F)cccc45)CC3)s2)on1` [Example 63, N-[(2S)-1-(4-{[2-(3-methyl-1,2-oxazol-5-yl)-1,3-thiazol-5-yl]sulfonyl}piperazin-1-yl)propan-2-yl]-8-(trifluoromethyl)quinazolin-4-amine]: the IC50 lay within 10 to 100 nM. The figure for `COC(=O)Nc1ncc(S(=O)(=O)N2CCN(C[C@H](C)Nc3ncnc4c(C(F)(F)F)cccc34)CC2)s1` [Example 26, methyl N-[5-({4-[(2S)-2-{[8-(trifluoromethyl)quinazolin-4-yl]amino}propyl]piperazin-1-yl}sulfonyl)-1,3-thiazol-2-yl]carbamate] is less than 1000 nM; for `Cc1cc(-c2ccc(S(=O)(=O)N3CCN(C[C@H](C)Nc4ncnc5c(OC(=O)N(C)C)cccc45)CC3)s2)on1` [Example 91, 4-{[(2S)-1-(4-{[5-(3-methyl-1,2-oxazol-5-yl)thiophen-2-yl]sulfonyl}piperazin-1-yl)propan-2-yl]amino}quinazolin-8-yl N,N-dimethylcarbamate] it is 10 to 100 nM. The figure for `COC(=O)c1cccc2c(N[C@@H](C)CN3CCN(S(=O)(=O)c4ccc(-c5ccno5)s4)CC3)ncnc12` [Example 16, methyl 4-{[(2S)-1-(4-{[5-(1,2-oxazol-5-yl)thiophen-2-yl]sulfonyl}piperazin-1-yl)propan-2-yl]amino}quinazoline-8-carboxylate] is 10 to 100 nM. The figure for `C[C@@H](CN1CCN(S(=O)(=O)c2ccc(-c3ccn[nH]3)o2)CC1)Nc1ncnc2c(C(F)(F)F)cccc12` [Example 67, N-[(2S)-1-(4-{[5-(1H-pyrazol-5-yl)furan-2-yl]sulfonyl}piperazin-1-yl)propan-2-yl]-8-(trifluoromethyl)quinazolin-4-amine] is less than 1000 nM; for `Cc1noc(-c2ccc(S(=O)(=O)N3CCN(C[C@H](C)Nc4ncnc5c(C(=O)N(C)C)cccc45)CC3)s2)c1C` [Example 43, 4-{[(2S)-1-(4-{[5-(3,4-dimethyl-1,2-oxazol-5-yl)thiophen-2-yl]sulfonyl}piperazin-1-yl)propan-2-yl]amino}-N,N-dimethylquinazoline-8-carboxamide] it is less than 10 nM; for `COC(=O)Nc1nc(C)c(S(=O)(=O)N2CCN(C[C@H](C)Nc3nc(C4CC4)nc4c(C)cccc34)CC2)s1` [Example 18, methyl N-[5-({4-[(2S)-2-[(2-cyclopropyl-8-methylquinazolin-4-yl)amino]propyl]piperazin-1-yl}sulfonyl)-4-methyl-1,3-thiazol-2-yl]carbamate] it is 10 to 100 nM. Consider `Cc1cc(-c2ccc(S(=O)(=O)N3CCN(C[C@H](C)Nc4ncnc5c(N(C)C)cccc45)CC3)s2)on1` [Example 96, N8,N8-dimethyl-N4-[(2S)-1-(4-{[5-(3-methyl-1,2-oxazol-5-yl)thiophen-2-yl]sulfonyl}piperazin-1-yl)propan-2-yl]quinazoline-4,8-diamine], for which the half-maximal inhibitory concentration (IC50) was less than 10 nM. Take `COC(=O)Nc1nc(C)c(S(=O)(=O)N2CCN(C[C@H](C)Nc3ncnc4c(C(=O)N5CCC[C@@H]5C(F)(F)F)cccc34)CC2)s1` (racemic) [Example 79, methyl N-[4-methyl-5-({4-[(2S)-2-({8-[(2R)-2-(trifluoromethyl)pyrrolidine-1-carbonyl]quinazolin-4-yl}amino)propyl]piperazin-1-yl}sulfonyl)-1,3-thiazol-2-yl]carbamate]: the IC50 lay in the range of 10 to 100 nM. The figure for `Cc1noc(-c2ccc(S(=O)(=O)N3CCN(C[C@H](C)Nc4ncnc5c(C(=O)N6CCC[C@H]6C(F)(F)F)cccc45)CC3)s2)c1C` (racemic) [Example 69, N-[(2S)-1-(4-{[5-(3,4-dimethyl-1,2-oxazol-5-yl)thiophen-2-yl]sulfonyl}piperazin-1-yl)propan-2-yl]-8-[(2S)-2-(trifluoromethyl)pyrrolidine-1-carbonyl]quinazolin-4-amine] is less than 10 nM; for `Cc1n[nH]c(-c2ccc(S(=O)(=O)N3CCN(C[C@H](C)Nc4ncnc5c(C(F)(F)F)cccc45)CC3)o2)c1C` [Example 56, N-[(2S)-1-(4-{[5-(3,4-dimethyl-1H-pyrazol-5-yl)furan-2-yl]sulfonyl}piperazin-1-yl)propan-2-yl]-8-(trifluoromethyl)quinazolin-4-amine] it is 10 to 100 nM; for `COCC(=O)Nc1nc(C)c(S(=O)(=O)N2CCN(C[C@H](C)Nc3ncnc4c(C(F)(F)F)cccc34)CC2)s1` [Example 25, 2-methoxy-N-[4-methyl-5-({4-[(2S)-2-{[8-(trifluoromethyl)quinazolin-4-yl]amino}propyl]piperazin-1-yl}sulfonyl)-1,3-thiazol-2-yl]acetamide] it is less than 1000 nM. The figure for `Cc1noc(-c2ccc(S(=O)(=O)N3CCN(C[C@H](C)Nc4ncnc5c(CN(C)C)cccc45)CC3)s2)c1C` [Example 74, N-[(2S)-1-(4-{[5-(3,4-dimethyl-1,2-oxazol-5-yl)thiophen-2-yl]sulfonyl}piperazin-1-yl)propan-2-yl]-8-[(dimethylamino)methyl]quinazolin-4-amine] is less than 1000 nM; for `COC(=O)Nc1nc(C)c(S(=O)(=O)N2CCN(C[C@H](C)Nc3ncnc4c(OC(F)(F)F)cccc34)CC2)s1` [Example 3, Methyl N-[4-methyl-5-({4-[(2S)-2-{[8-(trifluoromethoxy)quinazolin-4-yl]amino}propyl]piperazin-1-yl}sulfonyl)-1,3-thiazol-2-yl]carbamate] it is 10 to 100 nM. Consider `Cc1noc(-c2ccc(S(=O)(=O)N3CCN(C[C@H](C)Nc4ncnc5c(C(=O)N6CC7CC7C6)cccc45)CC3)s2)c1C` (mixture of isomers) [Example 85, 8-{3-azabicyclo[3.1.0]hexane-3-carbonyl}-N-[(2S)-1-(4-{[5-(3,4-dimethyl-1,2-oxazol-5-yl)thiophen-2-yl]sulfonyl}piperazin-1-yl)propan-2-yl]quinazolin-4-amine], for which the IC50 was less than 10 nM. In the case of `Cc1noc(-c2ccc(S(=O)(=O)N3CCN(C[C@H](C)Nc4ncnc5c(OC(F)F)cccc45)CC3)s2)c1C` [Example 4, 8-(difluoromethoxy)-N-[(2S)-1-(4-{[5-(3,4-dimethyl-1,2-oxazol-5-yl)thiophen-2-yl]sulfonyl}piperazin-1-yl)propan-2-yl]quinazolin-4-amine], the IC50 lay in the range of 10 to 100 nM.
